# Measurements from ChEMBL document CHEMBL2074157, “The modified dipeptide, enalapril, an angiotensin-converting enzyme inhibitor, is transported by the rat liver organic anion transport protein” (Hepatology, 1998).
# How the values were obtained:
# Assay type in all cases: functional, cell-based
# [1] = target: T1, Solute carrier organic anion transporter family member 1A1 (Rattus norvegicus, UniProt P46720); experiment: (§1) TP_TRANSPORTER: uptake in Oatp1-expressing HeLa cells; conditions: human
# T1 sequence (P46720 whole entry): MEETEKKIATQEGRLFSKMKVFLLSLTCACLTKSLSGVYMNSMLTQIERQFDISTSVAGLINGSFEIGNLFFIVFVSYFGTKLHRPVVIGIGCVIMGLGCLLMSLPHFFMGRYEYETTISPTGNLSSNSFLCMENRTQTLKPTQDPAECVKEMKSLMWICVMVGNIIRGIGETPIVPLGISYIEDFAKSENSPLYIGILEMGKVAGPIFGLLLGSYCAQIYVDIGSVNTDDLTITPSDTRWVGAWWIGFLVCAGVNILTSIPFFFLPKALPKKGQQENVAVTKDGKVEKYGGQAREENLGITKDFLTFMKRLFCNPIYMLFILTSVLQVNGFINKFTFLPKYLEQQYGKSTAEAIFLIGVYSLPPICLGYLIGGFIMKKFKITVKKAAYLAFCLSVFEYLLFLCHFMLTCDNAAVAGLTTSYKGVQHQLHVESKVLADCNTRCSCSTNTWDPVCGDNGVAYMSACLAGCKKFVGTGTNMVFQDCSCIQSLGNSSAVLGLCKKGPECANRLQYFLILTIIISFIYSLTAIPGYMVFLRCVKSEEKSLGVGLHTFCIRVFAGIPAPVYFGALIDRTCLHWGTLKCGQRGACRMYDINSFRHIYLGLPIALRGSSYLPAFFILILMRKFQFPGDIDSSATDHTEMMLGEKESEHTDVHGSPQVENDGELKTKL
# [2] = target: T2, Oatp1 (Solute carrier organic anion transporter family member 1A1) (Rattus norvegicus, UniProt P46720); experiment: TP_TRANSPORTER: inhibition of Enalapril uptake (Enalapril: ? uM, E1S: 100 uM) in Oatp1-expressing HeLa cells; set-up: scale not given: the % may be the effect or the level left; conditions: human, probe Enalapril, read-out: Activity
# T2 sequence (P46720 whole entry): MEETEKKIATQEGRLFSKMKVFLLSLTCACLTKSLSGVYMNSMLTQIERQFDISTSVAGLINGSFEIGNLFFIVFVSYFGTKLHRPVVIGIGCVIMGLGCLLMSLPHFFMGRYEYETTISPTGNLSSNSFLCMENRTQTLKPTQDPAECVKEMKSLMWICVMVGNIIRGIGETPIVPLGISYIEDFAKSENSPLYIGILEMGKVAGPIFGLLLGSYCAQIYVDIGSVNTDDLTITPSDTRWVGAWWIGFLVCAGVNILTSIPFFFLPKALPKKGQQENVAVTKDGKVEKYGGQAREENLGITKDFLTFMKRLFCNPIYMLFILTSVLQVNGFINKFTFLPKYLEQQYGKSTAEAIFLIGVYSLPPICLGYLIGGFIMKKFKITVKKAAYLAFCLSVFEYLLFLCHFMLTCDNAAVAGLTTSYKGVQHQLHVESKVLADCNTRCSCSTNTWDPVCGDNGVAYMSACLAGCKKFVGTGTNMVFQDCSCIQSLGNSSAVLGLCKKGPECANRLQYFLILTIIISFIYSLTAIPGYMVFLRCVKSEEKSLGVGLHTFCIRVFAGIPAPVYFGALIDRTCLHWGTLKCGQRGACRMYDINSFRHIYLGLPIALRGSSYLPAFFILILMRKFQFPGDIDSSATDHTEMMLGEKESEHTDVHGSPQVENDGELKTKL
# [3] = target: T1, Solute carrier organic anion transporter family member 1A1; experiment: TP_TRANSPORTER: inhibition of Enalapril uptake in Oatp1-expressing HeLa cells
# [4] = target: T2, Oatp1 (Solute carrier organic anion transporter family member 1A1); experiment: TP_TRANSPORTER: inhibition of Enalapril uptake (Enalapril: ? uM, BSP-SG: 200 uM) in Oatp1-expressing HeLa cells; set-up: scale not given: the % may be the effect or the level left; conditions: human, probe Enalapril, read-out: Activity
# [5] = substrate: CCOC(=O)[C@H](CCc1ccccc1)N[C@@H](C)C(=O)N1CCC[C@H]1C(=O)O; experiment: as §1
Molecule,Activity [1],other results
C[C@H](N[C@@H](CCc1ccccc1)C(=O)O)C(=O)N1CCC[C@H]1C(=O)O [ENALAPRILAT ANHYDROUS],is not a substrate [-],
C[C@]12CC[C@@H]3c4ccc(OS(=O)(=O)O)cc4CC[C@H]3[C@@H]1CCC2=O [ESTRONE SULFURIC ACID],substrate [+],activity at 100 µM [2]: 20%
O=C1OC(c2ccc(O)c(S(=O)(=O)O)c2)(c2ccc(O)c(S(=O)(=O)O)c2)c2c(Br)c(Br)c(Br)c(Br)c21 [SULFOBROMOPHTHALEIN SODIUM],,Ki [3]: 1.98 µM
Cc1nccc2c1[nH]c1cc(O)ccc12.O=S(=O)(O)O [HARMOL SULFATE],is not a substrate [-],
N[C@@H](CCC(=O)N[C@@H](CSc1c(Br)c(Br)c2c(c1Br)C(=O)OC2(c1ccc(O)c(S(=O)(=O)O)c1)c1ccc(O)c(S(=O)(=O)O)c1)C(=O)NCC(=O)O)C(=O)O,substrate [+],activity at 200 µM [4]: 78%
Solute carrier organic anion transporter family member 1A1 (Rattus norvegicus) (protein) MEETEKKIATQEGRLFSKMKVFLLSLTCACLTKSLSGVYMNSMLTQIERQFDISTSVAGLINGSFEIGNLFFIVFVSYFGTKLHRPVVIGIGCVIMGLGCLLMSLPHFFMGRYEYETTISPTGNLSSNSFLCMENRTQTLKPTQDPAECVKEMKSLMWICVMVGNIIRGIGETPIVPLGISYIEDFAKSENSPLYIGILEMGKVAGPIFGLLLGSYCAQIYVDIGSVNTDDLTITPSDTRWVGAWWIGFLVCAGVNILTSIPFFFLPKALPKKGQQENVAVTKDGKVEKYGGQAREENLGITKDFLTFMKRLFCNPIYMLFILTSVLQVNGFINKFTFLPKYLEQQYGKSTAEAIFLIGVYSLPPICLGYLIGGFIMKKFKITVKKAAYLAFCLSVFEYLLFLCHFMLTCDNAAVAGLTTSYKGVQHQLHVESKVLADCNTRCSCSTNTWDPVCGDNGVAYMSACLAGCKKFVGTGTNMVFQDCSCIQSLGNSSAVLGLCKKGPECANRLQYFLILTIIISFIYSLTAIPGYMVFLRCVKSEEKSLGVGLHTFCIRVFAGIPAPVYFGALIDRTCLHWGTLKCGQRGACRMYDINSFRHIYLGLPIALRGSSYLPAFFILILMRKFQFPGDIDSSATDHTEMMLGEKESEHTDVHGSPQVENDGELKTKL,,Km [5]: 252 µM
